From patent US20110207760A1, “SN-38 COMPOSITIONS” (priority 2010, published 2011)

What was measured:
[1] = Physical stability of SN-38 in diluted aqueous cyclodextrin solutions (HPLC); type: physicochemical; settings: for Concentration of SN-38 relative to time 0 h: room temperature
Method: (§1) Aliquots of the resultant SN-38 composition in aqueous SBECD were diluted 6 times with water, and further diluted with 10% (w/w) aqueous SBECD to obtain samples having a concentration suitable for HPLC analysis. The samples were analyzed by HPLC using column Symmetry Shield C18 3.5 μ, 50×4.6 mm (Waters), water (0.1% TFA)—acetonitrile (0.1% TFA) gradient and UV detection at 225 nm and 260 nm. The concentrations of SN-38 in the samples were determined by comparison of the area under the peak with the results obtained from analysis of standard solutions.
The SN-38 solution prepared as in the Example 1 was diluted with water, by weight, to obtain solutions containing respectively 5% SBECD, 10% SBECD, and 20% SBECD. All solutions were kept at room temperature and periodically analyzed by HPLC using the method described in the Example 1.
(§2) A solution of SN-38 in hydroxypropyl beta-cyclodextrin (HPbCD) was prepared using the procedure described in the Example 1. This solution was subsequently diluted with water, by weight, to obtain HPbCD concentration 20%. The relative change of SN-38 concentration in this solution after 70 hours was determined as described above, and is noted in Table 3 below.
as §2, with “in dimethyl” for “in hydroxypropyl”, “beta-cyclodextrin (DMbCD)” for “beta-cyclodextrin (HPbCD)”, “obtain DMbCD” for “obtain HPbCD”, “after 22.5” for “after 70”, “Table 4” for “Table 3”

[2] = room temperature; cited from earlier work
[3] = Dissolution of SN-38 in aqueous SBECD at 100° C. (HPLC); type: physicochemical; settings: boiling water bath 1 hour, 24 hours room temperature
Method: 37.6 mL water was added to 62.4 g sodium sulfobutyl ether beta-cyclodextrin (having a substitution level of about 7, as determined by NMR, and a water content of 3.9%, as determined by Karl-Fisher method), and was mixed until homogenous. The resulting viscous liquid was filtered through a 0.2 micrometer nylon filter to produce 60% (w/w) clear aqueous solution of SBECD. The density of this solution was 1.29 g/mL.
2 mg of SN-38 was added to 4g of such 60% (w/w) aqueous SBECD, and the mixture heated in a boiling water bath for 1 hour, allowed to cool and kept at room temperature for 24 hours, and then filtered through a 0.2 micrometer nylon filter with a 1 micrometer glass fiber prefilter. A clear yellow viscous liquid was produced.
as §1
4 g samples of aqueous SBECD having a concentration of 20%, 30%, 40%, 50% and 60% (w/w), respectively, were mixed with 2 mg of SN-38. The mixtures were heated in boiling water bath for 1 hour and then were kept for 24 hours at room temperature. The mixtures were then filtered through a 0.2 micrometer nylon filter and analyzed by HPLC as described in Example 1.

Concentration of SN-38 relative to time 0 h ([1]; 5% SBECD, 0 h): 100.0
Concentration of SN-38 relative to time 0 h ([1]; 5% SBECD, 5 h): 96.6
Concentration of SN-38 relative to time 0 h ([1]; 5% SBECD, 23 h): 91.4
Concentration of SN-38 relative to time 0 h ([1]; 5% SBECD, 47 h): 85.2
Concentration of SN-38 relative to time 0 h ([1]; 5% SBECD, 71 h): 79.2
Concentration of SN-38 relative to time 0 h ([1]; 5% SBECD, 98 h): 77.9
Concentration of SN-38 relative to time 0 h ([1]; 10% SBECD, 0 h): 100.0
Concentration of SN-38 relative to time 0 h ([1]; 10% SBECD, 5 h): 97.9
Concentration of SN-38 relative to time 0 h ([1]; 10% SBECD, 23 h): 94.9
Concentration of SN-38 relative to time 0 h ([1]; 10% SBECD, 47 h): 90.8
Concentration of SN-38 relative to time 0 h ([1]; 10% SBECD, 71 h): 87.7
Concentration of SN-38 relative to time 0 h ([1]; 10% SBECD, 98 h): 85.5
relative change of SN-38 concentration ([1]; 20% DMbCD, 0 h): 100.0
relative change of SN-38 concentration ([1]; 20% DMbCD, 22.5 h): 42.5
relative change of SN-38 concentration ([1]; 20% HPbCD, 0 h): 100.0
relative change of SN-38 concentration ([1]; 20% HPbCD, 70 h): 63.0
Concentration of SN-38 relative to time 0 h ([1]; 20% SBECD, 0 h): 100.0
Concentration of SN-38 relative to time 0 h ([1]; 20% SBECD, 5 h): 99.5
Concentration of SN-38 relative to time 0 h ([1]; 20% SBECD, 23 h): 97.6
Concentration of SN-38 relative to time 0 h ([1]; 20% SBECD, 47 h): 96.3
Concentration of SN-38 relative to time 0 h ([1]; 20% SBECD, 71 h): 95.1
Concentration of SN-38 relative to time 0 h ([1]; 20% SBECD, 98 h): 93.2
SN-38 concentration ([3]; 20% SBECD): 0.03 mg/g of solution
SN-38 concentration ([3]; 30% SBECD): 0.07 mg/g of solution
SN-38 concentration ([3]; 40% SBECD): 0.13 mg/g of solution
SN-38 concentration ([3]; 50% SBECD): 0.23 mg/g of solution
SN-38 concentration ([3]; 60% SBECD): 0.40 mg/g of solution
concentration of SN-38 in the product solution ([3]; Example 1: 60% (w/w) aqueous SBECD, filtered): 0.40 mg/g of composition
Compound: CCc1c2c(nc3ccc(O)cc13)-c1cc3c(c(=O)n1C2)COC(=O)[C@]3(O)CC [SN-38, (4S)-4,11-Diethyl-4,9-dihydroxy-1H-pyrano[3′,4′:6,7]indolizino[1,2-b]quinoline-3,14(4H,12H)dione]
solubility in water [2]: about 0.00008 mg/mL
